One data set addresses T1, Ich-2 (Caspase-4) (Homo sapiens, UniProt P49662).
T1 sequence (P49662 81-270 limits assumed): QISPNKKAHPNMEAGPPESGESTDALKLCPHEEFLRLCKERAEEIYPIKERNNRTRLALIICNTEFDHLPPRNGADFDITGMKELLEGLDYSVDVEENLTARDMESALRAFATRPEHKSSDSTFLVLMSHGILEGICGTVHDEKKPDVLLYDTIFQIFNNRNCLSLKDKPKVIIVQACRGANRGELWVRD
T1 sequence (P49662 290-377 limits assumed): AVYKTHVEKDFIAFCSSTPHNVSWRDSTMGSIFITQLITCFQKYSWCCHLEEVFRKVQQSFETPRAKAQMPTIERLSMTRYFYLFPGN
Nature of the data set: Ich-2 (Caspase-4) Colorimetric Dose-Response (IC50) Assay. As to conditions: enzyme 64 nM, substrate Ac-Leu-Glu-Val-Asp-pNA. It is filed as biochemical. Here is the method:
(§1) Diluted inhibitor stocks are prepared by two-fold serial dilution from a primary stock whose concentration is selected (based on screening results or on prior attempts at IC50 evaluation) to achieve approximately 95% inhibition in the most concentrated well. Aliquots of each dilution are transferred to a microtitre plate in triplicate.
(§2) ICE enzyme is diluted to approximately 24 nM in HGE buffer (100 mM HEPES pH 7.5, 0.5 mM EDTA, 20% glycerol, 0.1% Bovine Serum Albumin (BSA)), and activated by adding dithiothreitol (DTT) to a final concentration of 5 mM. The activated enzyme is then aliquoted into wells containing inhibitor or vehicle, and the plate is preincubated for 60 minutes at ambient temperature. Substrate (Ac-Tyr-Val-Ala-Asp-pNA) is added to each well to a final concentration of 50 μM, and plates are placed in the microtitre plate-reader thermostated to 25° C. Beginning 5 minutes after addition of substrate, absorbance (405 nm) of wells is monitored for 1 hour, and activity is calculated as the mean rate of change in absorbance during this interval.
Ich-2 (Caspase-4) Colorimetric Dose-Response (IC50) Assay
Inhibition of Ich-2 enzyme is assayed as described above for ICE, except that enzyme is used at 64 nM, and 60 µM of the Ich-2-specific substrate Ac-Leu-Glu-Val-Asp-pNA is used instead of the ICE substrate Ac-Tyr-Val-Ala-Asp-pNA.

Data set [1] has as its target T2, ICE (interleukin-1β converting enzyme, Caspase-1) (Homo sapiens, UniProt P29466).
T2 sequence (P29466 120-297 limits assumed): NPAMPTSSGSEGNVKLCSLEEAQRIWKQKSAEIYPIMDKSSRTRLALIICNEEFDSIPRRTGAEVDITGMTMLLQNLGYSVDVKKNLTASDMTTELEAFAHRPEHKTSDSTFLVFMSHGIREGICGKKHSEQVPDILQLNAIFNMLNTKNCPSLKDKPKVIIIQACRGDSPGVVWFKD
T2 sequence (P29466 317-404 limits assumed): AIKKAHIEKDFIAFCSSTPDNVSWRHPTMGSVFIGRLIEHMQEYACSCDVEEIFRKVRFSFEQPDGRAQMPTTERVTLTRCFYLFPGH
Nature of the data set: ICE Ki fluorescence assay (Ac-Tyr-Val-Ala-Asp-AMC hydrolysis). It is filed as biochemical. As to conditions: ICE 0.24 nM, 15 μM Ac-Tyr-Val-Ala-Asp-AMC, reversible competitive model. Here is the method: Substrate hydrolysis is monitored for 300 seconds by observing the fluorescence of released AMC using excitation at 380 nm and emission at 460 nm. Mean rates of substrate hydrolysis are evaluated by linear-regression analysis of the fluorescence vs time traces. To evaluate Ki, plots of percent inhibition vs inhibitor concentration are fit by non-linear regression to a reversible, competitive model: [formula]
Where the competition factor (1+[S]/KM)=2.

Data set [2] deals with T2, ICE (interleukin-1β converting enzyme, Caspase-1). Nature of the data set: ICE Colorimetric Dose-Response (IC50) Assay. As to conditions: ICE approx. 24 nM, 60 min preincubation, 50 μM Ac-Tyr-Val-Ala-Asp-pNA, 25° C. It is filed as biochemical. Here is the method:
ICE Colorimetric Dose-Response (IC50) Assay
as §1, §2

Where “and” joins values, the source holds several entries; their conditions need not be identical. Identical values can stand only once.

Consider `O=C(O)CC(NC(=O)OCc1ccccc1)C(=O)CNS(=O)(=O)CCCc1ccccc1` (stereo not shown) [Example 2b, 3-Benzloxycarbonylamino-4-oxo-5-(3-phenylpropane-1-sulfonylamino)-pentanoic acid], for which the melting point was in the range of 96 to 104 °C. At Ich-2 (Caspase-4), this molecule yielded an IC50 of 8590 µM. The inhibition constant Ki in data set [1] is 34.5 µM and 32 µM. Further, 245 µM corresponded to half-maximal inhibition in data set [2] (IC50).
On to `CC(C)C(NC(=O)C(CCC(=O)O)NC(=O)CCc1ccccc1)C(=O)NC(CC(=O)O)C(=O)CNS(=O)(=O)CC12CCC(CC1=O)C2(C)C` (stereo not shown) [Example 4d], for which the half-maximal inhibitory concentration (IC50) came to 1.6 µM against Ich-2 (Caspase-4) and 0.003 µM in data set [2]. The affinity in data set [1] corresponds to a Ki of 0.0016 µM.
In the same order, the values of `CC(=O)NC(Cc1ccc(O)cc1)C(=O)NC(CCC(=O)O)C(=O)NC(C(=O)NC(CC(=O)O)C(=O)CNS(=O)(=O)CC12CCC(CC1=O)C2(C)C)C(C)C` (stereo not shown) [Example 4e, 3-(2-{2-[2-Acetylamino-3-(4-hydroxy-phenyl)-propionylamino]-4-carboxy-butyrylamino}-3-methyl-butyrylamino)-5-(7,7-dimethyl-2-oxo-bicyclo[2.2.1]hept-1-ylmethanesulfonylamino)-4-oxo-pentanoic acid] are 0.7 µM, 0.002 µM and 0.00011 µM.
For `CC(C)C(NC(=O)C(CCC(=O)O)NC(=O)OCc1ccccc1)C(=O)NC(CC(=O)O)C(=O)CNS(=O)(=O)CC12CCC(CC1=O)C2(C)C` (stereo not shown) [Example 4f, 3-[2-(2-Benzyloxycarbonylamino-4-carboxy-butyrylamino)-3-methyl-butyrylamino]-5-(7,7-dimethyl-2-oxo-bicyclo[2.2.1]hept-1-ylmethanesulfonylamino)-4-oxo-pentanoic acid], the concentration for half-maximal inhibition (IC50) against Ich-2 (Caspase-4) was 3.2 µM; in data set [2], 0.002 µM. Also, the inhibition constant (Ki) in data set [1] was 0.00061 µM.
For `O=C(O)C[C@H](NC(=O)CN1CCc2ccccc2C1=O)C(=O)CNS(=O)(=O)CC12CCC(CC1)C2` [Example 5b, (S)-5-(Bicyclo[2.2.1]hept-1-ylmethanesulfonylamino)-4-oxo-3-[2-(1-oxo-3,4-dihydro-1H-isoquinolin-2-yl)-acetylamino]-pentanoic acid], the figures for the 50% inhibitory concentration (IC50) (against Ich-2 (Caspase-4); in data set [2]) were 252 µM and 165 µM, respectively. In addition, the Ki in data set [1] is 20 µM.

The term IC50 denotes the concentration that gives 50% inhibition. A higher IC50 goes with a need for much substance. One may read the Ki as the equilibrium dissociation constant of an inhibitor or competing ligand from its target. As usually defined, the melting point is the temperature, or range, at which the solid turns liquid.
